{
  "source": "patent US20250171499A1",
  "about": "“PHARMACEUTICAL FORMULATIONS AND METHODS FOR THE TREATMENT OF METABOLIC AND LIVER DISORDERS” (Viking Therapeutics, Inc., priority 2022, published 2025)",
  "key": {"GIP receptor": {"molecular_target": "T1, GIP receptor (Homo sapiens, UniProt P48546)", "T1 sequence (P48546 22-466)": "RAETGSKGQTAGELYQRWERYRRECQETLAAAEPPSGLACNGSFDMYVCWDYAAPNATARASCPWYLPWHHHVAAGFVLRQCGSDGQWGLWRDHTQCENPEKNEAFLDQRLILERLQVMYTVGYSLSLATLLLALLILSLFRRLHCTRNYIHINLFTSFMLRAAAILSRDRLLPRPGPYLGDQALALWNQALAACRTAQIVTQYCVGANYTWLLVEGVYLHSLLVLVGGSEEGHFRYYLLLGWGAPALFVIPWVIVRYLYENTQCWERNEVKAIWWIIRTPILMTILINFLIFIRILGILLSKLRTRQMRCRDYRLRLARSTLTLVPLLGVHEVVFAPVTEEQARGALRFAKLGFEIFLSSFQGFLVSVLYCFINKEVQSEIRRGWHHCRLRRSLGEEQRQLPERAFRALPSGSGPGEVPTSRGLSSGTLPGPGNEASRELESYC", "assay": "Binding assay in the presence or absence of 2% human serum albumin, GIP receptor", "conditions": "IC50 with 2% HSA to IC50 with 0% HSA"}, "[1]": {"assay": "Pharmacokinetics study of formulations, subcutaneous dosing", "format": "in vivo", "conditions": "Formulation 2; SC 0.2 mg/kg; male cynomolgus monkeys", "procedure": "Formulation 1 included the compound in a vehicle of 0.1% bovine serum albumin in phosphate buffered saline solution. […] Samples were obtained at 1, 4, 8, 12, 24, 48, 72, 96, 120, 168, 192, 240 and 336 hours after the single dose was administered."}, "GLP-1 receptor": {"molecular_target": "GLP-1 receptor (Homo sapiens, UniProt P43220)", "sequence (P43220 24-463, species assumed)": "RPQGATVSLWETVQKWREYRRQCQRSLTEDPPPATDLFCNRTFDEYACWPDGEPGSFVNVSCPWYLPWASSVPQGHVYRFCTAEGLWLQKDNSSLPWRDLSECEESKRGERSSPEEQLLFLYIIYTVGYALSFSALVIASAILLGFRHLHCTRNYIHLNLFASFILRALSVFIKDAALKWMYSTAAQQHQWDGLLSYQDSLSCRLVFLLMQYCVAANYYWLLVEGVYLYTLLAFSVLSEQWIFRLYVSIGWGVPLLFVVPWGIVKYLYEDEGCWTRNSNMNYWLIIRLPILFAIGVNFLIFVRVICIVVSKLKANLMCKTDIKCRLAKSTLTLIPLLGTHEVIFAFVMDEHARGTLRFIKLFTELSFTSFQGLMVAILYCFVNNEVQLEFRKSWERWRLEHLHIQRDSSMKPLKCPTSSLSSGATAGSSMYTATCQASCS", "conditions": "IC50 with 2% HSA to IC50 with 0% HSA"}},
  "data": [
    {"smiles": "CC[C@H](C)[C@H](NC(=O)[C@H](CC(C)C)NC(=O)[C@H](Cc1c[nH]c2ccccc12)NC(=O)[C@H](CCC(N)=O)NC(=O)[C@@H](NC(=O)[C@H](Cc1ccccc1)NC(=O)[C@H](C)NC(=O)[C@H](CCCCNC(=O)COCCOCCNC(=O)COCCOCCNC(=O)CC[C@H](NC(=O)CCCCCCCCCCCCCCCCCCP(=O)(O)O)C(=O)O)NC(=O)[C@H](CCC(N)=O)NC(=O)[C@H](C)NC(=O)[C@@H](NC(=O)[C@H](CCCCN)NC(=O)[C@H](CC(=O)O)NC(=O)[C@H](CC(C)C)NC(=O)C(C)(C)NC(=O)[C@@H](NC(=O)[C@H](CO)NC(=O)[C@H](Cc1ccc(O)cc1)NC(=O)[C@H](CC(=O)O)NC(=O)[C@H](CO)NC(=O)[C@@H](NC(=O)[C@H](Cc1ccccc1)NC(=O)[C@@H](NC(=O)CNC(=O)[C@H](CCC(=O)O)NC(=O)C(C)(C)NC(=O)[C@@H](N)Cc1ccc(O)cc1)[C@@H](C)O)[C@@H](C)O)[C@@H](C)CC)[C@@H](C)CC)C(C)C)C(=O)N[C@@H](C)C(=O)NCC(=O)NCC(=O)N1CCC[C@H]1C(=O)N[C@@H](CO)C(=O)N[C@@H](CO)C(=O)NCC(=O)N[C@@H](C)C(=O)N1CCC[C@H]1C(=O)N1CCC[C@H]1C(=O)N1CCC[C@H]1C(=O)N[C@@H](CO)C(N)=O", "note": "[Compound 4]", "values": [
      {"measurement": "GIP receptor Ratio of HSA:No HSA", "setting": "GIP receptor", "value": 1.25},
      {"measurement": "mean half life compared to tirzepatide", "setting": "[1]", "value": "twice as long"},
      {"measurement": "GLP-1 receptor Ratio of HSA:No HSA", "setting": "GLP-1 receptor", "value": 6.42}
    ]}
  ]
}
